Experimental data as given in patent US20230085307A1, “PYRIDAZINONE COMPOUND AND HERBICIDE” (NISSAN CHEMICAL CORPORATION, priority 2019, published 2023).

Experiments:
false cleavers [1] = test: Test Example 5: herbicidal effect by foliage application, plastic box (Table 20, symbol Q); assay type: in vivo, false cleavers (Galium spurium); settings: foliage application, 320 g/ha, three weeks after application
Procedure, shortened: (§1)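 Post-emergence foliar test in sterilized diluvial soil. Compound applied as water-diluted emulsion at a predetermined rate to 14-day-old plants; evaluation at three weeks.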

green foxtail [2] = test: Test Example 5: herbicidal effect by foliage application, plastic box (Table 20, symbol G); assay type: in vivo, green foxtail (Setaria viridis); settings: foliage application, 320 g/ha, three weeks after application
Procedure, shortened: as §1

blackgrass [3] = test: Test Example 4: herbicidal effect by soil treatment (Table 19, symbol J); assay type: in vivo, blackgrass (Alopecurus myosuroides); settings: amount of applied herbicide 320 g/ha
Procedure, shortened: (§2)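 Scoring uses the grading scale of an earlier test, three weeks post-application. Treatment consists of spraying a diluted emulsion formulation across the surface of sterilized diluvial soil in which seeds are buried near 1.5 cm deep; boxes are kept in a greenhouse between 25° C. and 30° C.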

southern crabgrass [4] = test: Test Example 5: herbicidal effect by foliage application, plastic box (Table 20, symbol F); assay type: in vivo, southern crabgrass (Digitaria ciliaris); settings: foliage application, 320 g/ha, three weeks after application
Procedure, shortened: as §1

southern crabgrass [5] = test: Test Example 4: herbicidal effect by soil treatment (Table 19, symbol F); assay type: in vivo, southern crabgrass (Digitaria ciliaris); settings: amount of applied herbicide 320 g/ha
Procedure, shortened: as §2

false cleavers [6] = test: Test Example 4: herbicidal effect by soil treatment (Table 19, symbol Q); assay type: in vivo, false cleavers (Galium spurium); settings: amount of applied herbicide 320 g/ha
Procedure, shortened: as §2

wild oat [7] = test: Test Example 4: herbicidal effect by soil treatment (Table 19, symbol I); assay type: in vivo, wild oat (Avena fatua); settings: amount of applied herbicide 320 g/ha
Procedure, shortened: as §2

Italian ryegrass [8] = test: Test Example 5: herbicidal effect by foliage application, plastic box (Table 20, symbol K); assay type: in vivo, Italian ryegrass (Lolium multiflorum); settings: foliage application, 320 g/ha, three weeks after application
Procedure, shortened: as §1

green foxtail [9] = test: Test Example 4: herbicidal effect by soil treatment (Table 19, symbol G); assay type: in vivo, green foxtail (Setaria viridis); settings: amount of applied herbicide 320 g/ha
Procedure, shortened: as §2

velvetleaf [10] = test: Test Example 4: herbicidal effect by soil treatment (Table 19, symbol M); assay type: in vivo, velvetleaf (Abutilon theophrasti); settings: amount of applied herbicide 320 g/ha
Procedure, shortened: as §2

barnyard grass [11] = test: Test Example 5: herbicidal effect by foliage application, plastic box (Table 20, symbol H); assay type: in vivo, barnyard grass (Echinochloa crus-galli); settings: foliage application, 320 g/ha, three weeks after application
Procedure, shortened: as §1

chickweed [12] = test: Test Example 5: herbicidal effect by foliage application, plastic box (Table 20, symbol P); assay type: in vivo, common chickweed (Stellaria media); settings: foliage application, 320 g/ha, three weeks after application
Procedure, shortened: as §1

barnyard grass [13] = test: Test Example 3: herbicidal effect by foliage application, Wagner pot (Table 18, symbol H); assay type: in vivo, barnyard grass (Echinochloa crus-galli); settings: 320 g/ha
Procedure, shortened: (§3)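 Plants were sown in alluvial soil held under 0.1–0.5 cm standing water and grown 14 days in a greenhouse at 25–30 °C. An emulsifiable formulation, water-diluted to the set dose, was then sprayed onto the foliage, and effects were scored three weeks later using previously defined criteria.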

barnyard grass [14] = test: Test Example 4: herbicidal effect by soil treatment (Table 19, symbol H); assay type: in vivo, barnyard grass (Echinochloa crus-galli); settings: amount of applied herbicide 320 g/ha
Procedure, shortened: as §2

rice flat sedge = test: Test Example 3: herbicidal effect by foliage application, Wagner pot (Table 18, symbol E); assay type: in vivo, rice flat sedge (Cyperus iria); settings: 320 g/ha
Procedure, shortened: as §3

Chinese sprangletop = test: Test Example 3: herbicidal effect by foliage application, Wagner pot (Table 18, symbol D); assay type: in vivo, chinese sprangletop (Leptochloa chinensis); settings: 320 g/ha
Procedure, shortened: as §3

blackgrass [15] = test: Test Example 5: herbicidal effect by foliage application, plastic box (Table 20, symbol J); assay type: in vivo, blackgrass (Alopecurus myosuroides); settings: foliage application, 320 g/ha, three weeks after application
Procedure, shortened: as §1

chickweed [16] = test: Test Example 4: herbicidal effect by soil treatment (Table 19, symbol P); assay type: in vivo, common chickweed (Stellaria media); settings: amount of applied herbicide 320 g/ha
Procedure, shortened: as §2

redroot pigweed [17] = test: Test Example 5: herbicidal effect by foliage application, plastic box (Table 20, symbol N); assay type: in vivo, redroot pigweed (Amaranthus retroflexus); settings: foliage application, 320 g/ha, three weeks after application
Procedure, shortened: as §1

persian speedwell [18] = test: Test Example 4: herbicidal effect by soil treatment (Table 19, symbol R); assay type: in vivo, Persian speedwell (Veronica persica); settings: amount of applied herbicide 320 g/ha
Procedure, shortened: as §2

lambsquarters [19] = test: Test Example 5: herbicidal effect by foliage application, plastic box (Table 20, symbol O); assay type: in vivo, lambsquarters (Chenopodium album); settings: foliage application, 320 g/ha, three weeks after application
Procedure, shortened: as §1

wild oat [20] = test: Test Example 5: herbicidal effect by foliage application, plastic box (Table 20, symbol I); assay type: in vivo, wild oat (Avena fatua); settings: foliage application, 320 g/ha, three weeks after application
Procedure, shortened: as §1

redroot pigweed [21] = test: Test Example 4: herbicidal effect by soil treatment (Table 19, symbol N); assay type: in vivo, redroot pigweed (Amaranthus retroflexus); settings: amount of applied herbicide 320 g/ha
Procedure, shortened: as §2

velvetleaf [22] = test: Test Example 5: herbicidal effect by foliage application, plastic box (Table 20, symbol M); assay type: in vivo, velvetleaf (Abutilon theophrasti); settings: foliage application, 320 g/ha, three weeks after application
Procedure, shortened: as §1

lambsquarters [23] = test: Test Example 4: herbicidal effect by soil treatment (Table 19, symbol O); assay type: in vivo, lambsquarters (Chenopodium album); settings: amount of applied herbicide 320 g/ha
Procedure, shortened: as §2

windgrass [24] = test: Test Example 4: herbicidal effect by soil treatment (Table 19, symbol L); assay type: in vivo, windgrass (Apera spica-venti); settings: amount of applied herbicide 320 g/ha
Procedure, shortened: as §2

persian speedwell [25] = test: Test Example 5: herbicidal effect by foliage application, plastic box (Table 20, symbol R); assay type: in vivo, Persian speedwell (Veronica persica); settings: foliage application, 320 g/ha, three weeks after application
Procedure, shortened: as §1

Italian ryegrass [26] = test: Test Example 4: herbicidal effect by soil treatment (Table 19, symbol K); assay type: in vivo, Italian ryegrass (Lolium multiflorum); settings: amount of applied herbicide 320 g/ha
Procedure, shortened: as §2

windgrass [27] = test: Test Example 5: herbicidal effect by foliage application, plastic box (Table 20, symbol L); assay type: in vivo, windgrass (Apera spica-venti); settings: foliage application, 320 g/ha, three weeks after application
Procedure, shortened: as §1

Compound	herbicidal effect grade, Q: false cleavers (false cleavers [1])	herbicidal effect grade, G: green foxtail (green foxtail [2])	herbicidal effect rating, J: blackgrass (blackgrass [3])	herbicidal effect grade, F: southern crabgrass (southern crabgrass [4])	herbicidal effect rating, F: southern crabgrass (southern crabgrass [5])	herbicidal effect rating, Q: false cleavers (false cleavers [6])	herbicidal effect rating, I: wild oat (wild oat [7])	herbicidal effect grade, K: Italian ryegrass (Italian ryegrass [8])	herbicidal effect rating, G: green foxtail (green foxtail [9])	herbicidal effect rating, M: velvetleaf (velvetleaf [10])	herbicidal effect grade, H: barnyard grass (barnyard grass [11])	herbicidal effect grade, P: chickweed (chickweed [12])	herbicidal effect rating, H: barnyard grass (barnyard grass [14])	herbicidal effect grade, J: blackgrass (blackgrass [15])	herbicidal effect rating, P: chickweed (chickweed [16])	herbicidal effect grade, N: redroot pigweed (redroot pigweed [17])	herbicidal effect rating, R: persian speedwell (persian speedwell [18])	herbicidal effect grade, O: lambsquarters (lambsquarters [19])	herbicidal effect grade, I: wild oat (wild oat [20])	herbicidal effect rating, N: redroot pigweed (redroot pigweed [21])	further results
CON=C(C)c1ccc(-c2sc3ccccc3c2-c2c(O)c(C)nn(C)c2=O)cc1 [1-043]	2 (Herbicidal rate of 20% or more and less than 40%)	4 (Herbicidal rate of 70% or more and less than 90%)	0 (Herbicidal rate of 5% or less (almost no effect))	4 (Herbicidal rate of 70% or more and less than 90%)	0 (Herbicidal rate of 5% or less (almost no effect))	0 (Herbicidal rate of 5% or less (almost no effect))	0 (Herbicidal rate of 5% or less (almost no effect))	5 (Herbicidal rate of 90% or more (almost completely withered))	5 (Herbicidal rate of 90% or more (almost completely withered))	0 (Herbicidal rate of 5% or less (almost no effect))	3 (Herbicidal rate of 40% or more and less than 70%)	5 (Herbicidal rate of 90% or more (almost completely withered))	3 (Herbicidal rate of 40% or more and less than 70%)	4 (Herbicidal rate of 70% or more and less than 90%)	4 (Herbicidal rate of 70% or more and less than 90%)	5 (Herbicidal rate of 90% or more (almost completely withered))	4 (Herbicidal rate of 70% or more and less than 90%)	4 (Herbicidal rate of 70% or more and less than 90%)	2 (Herbicidal rate of 20% or more and less than 40%)	5 (Herbicidal rate of 90% or more (almost completely withered))	herbicidal effect on H (barnyard grass), rating 0-5 (barnyard grass [13]): 5 (Herbicidal rate of 90% or more (almost completely withered)); herbicidal effect on E (rice flat sedge), rating 0-5 (rice flat sedge): 0 (Herbicidal rate of 5% or less (almost no effect)); herbicidal effect on D (Chinese sprangletop), rating 0-5 (Chinese sprangletop): 5 (Herbicidal rate of 90% or more (almost completely withered)); herbicidal effect grade, M: velvetleaf (velvetleaf [22]): 5 (Herbicidal rate of 90% or more (almost completely withered)); herbicidal effect rating, O: lambsquarters (lambsquarters [23]): 5 (Herbicidal rate of 90% or more (almost completely withered)); herbicidal effect rating, L: windgrass (windgrass [24]): 0 (Herbicidal rate of 5% or less (almost no effect)); herbicidal effect grade, R: persian speedwell (persian speedwell [25]): 5 (Herbicidal rate of 90% or more (almost completely withered)); herbicidal effect rating, K: Italian ryegrass (Italian ryegrass [26]): 5 (Herbicidal rate of 90% or more (almost completely withered)); herbicidal effect grade, L: windgrass (windgrass [27]): 1 (Herbicidal rate of 5% or more and less than 20%)
CCCC(=O)Oc1c(C)nn(C)c(=O)c1-c1c(-c2ccsc2)sc2ccccc12 [1-084]	0 (Herbicidal rate of 5% or less (almost no effect))	0 (Herbicidal rate of 5% or less (almost no effect))	0 (Herbicidal rate of 5% or less (almost no effect))	0 (Herbicidal rate of 5% or less (almost no effect))	1 (Herbicidal rate of 5% or more and less than 20%)	0 (Herbicidal rate of 5% or less (almost no effect))	0 (Herbicidal rate of 5% or less (almost no effect))	1 (Herbicidal rate of 5% or more and less than 20%)	2 (Herbicidal rate of 20% or more and less than 40%)	0 (Herbicidal rate of 5% or less (almost no effect))	0 (Herbicidal rate of 5% or less (almost no effect))	5 (Herbicidal rate of 90% or more (almost completely withered))	1 (Herbicidal rate of 5% or more and less than 20%)	0 (Herbicidal rate of 5% or less (almost no effect))	1 (Herbicidal rate of 5% or more and less than 20%)	0 (Herbicidal rate of 5% or less (almost no effect))	0 (Herbicidal rate of 5% or less (almost no effect))	0 (Herbicidal rate of 5% or less (almost no effect))	0 (Herbicidal rate of 5% or less (almost no effect))	0 (Herbicidal rate of 5% or less (almost no effect))	herbicidal effect grade, M: velvetleaf (velvetleaf [22]): 0 (Herbicidal rate of 5% or less (almost no effect)); herbicidal effect rating, O: lambsquarters (lambsquarters [23]): 0 (Herbicidal rate of 5% or less (almost no effect)); herbicidal effect rating, L: windgrass (windgrass [24]): 0 (Herbicidal rate of 5% or less (almost no effect)); herbicidal effect grade, R: persian speedwell (persian speedwell [25]): 0 (Herbicidal rate of 5% or less (almost no effect)); herbicidal effect rating, K: Italian ryegrass (Italian ryegrass [26]): 0 (Herbicidal rate of 5% or less (almost no effect)); herbicidal effect grade, L: windgrass (windgrass [27]): 0 (Herbicidal rate of 5% or less (almost no effect))
